Source: publication PMC10709440, “High-throughput ligand profile characterization in novel cell lines expressing seven heterologous insect olfactory receptors for the detection of volatile plant biomarkers” (Scientific Reports, 2023)
Where “and” joins values, the source holds several entries; their conditions need not be identical. Identical values can stand only once. Like-named read-outs stand apart in the source and are kept apart here.

Tests used:
Drosophila OR49b = biological target: T1, Drosophila OR49b (Drosophila melanogaster, UniProt Q9V6H2); experiment: cell-based; conditions: for Average response: mean of biological replicates; for activation at 1 µM / activation at 10 µM / activation at 100 µM: HEK293
T1 construct: expressed in transfected cells
T1 sequence (Q9V6H2 1-375): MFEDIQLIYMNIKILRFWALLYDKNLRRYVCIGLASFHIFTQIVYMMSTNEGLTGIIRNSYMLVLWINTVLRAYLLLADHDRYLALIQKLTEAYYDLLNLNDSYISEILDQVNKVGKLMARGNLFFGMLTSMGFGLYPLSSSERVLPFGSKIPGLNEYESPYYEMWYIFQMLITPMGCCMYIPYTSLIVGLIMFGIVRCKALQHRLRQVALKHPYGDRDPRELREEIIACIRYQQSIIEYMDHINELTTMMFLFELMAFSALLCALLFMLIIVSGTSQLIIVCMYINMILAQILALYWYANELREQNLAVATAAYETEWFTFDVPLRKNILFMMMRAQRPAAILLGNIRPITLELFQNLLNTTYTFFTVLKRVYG
T1 sequence (Q9VNB5 1-486 partner): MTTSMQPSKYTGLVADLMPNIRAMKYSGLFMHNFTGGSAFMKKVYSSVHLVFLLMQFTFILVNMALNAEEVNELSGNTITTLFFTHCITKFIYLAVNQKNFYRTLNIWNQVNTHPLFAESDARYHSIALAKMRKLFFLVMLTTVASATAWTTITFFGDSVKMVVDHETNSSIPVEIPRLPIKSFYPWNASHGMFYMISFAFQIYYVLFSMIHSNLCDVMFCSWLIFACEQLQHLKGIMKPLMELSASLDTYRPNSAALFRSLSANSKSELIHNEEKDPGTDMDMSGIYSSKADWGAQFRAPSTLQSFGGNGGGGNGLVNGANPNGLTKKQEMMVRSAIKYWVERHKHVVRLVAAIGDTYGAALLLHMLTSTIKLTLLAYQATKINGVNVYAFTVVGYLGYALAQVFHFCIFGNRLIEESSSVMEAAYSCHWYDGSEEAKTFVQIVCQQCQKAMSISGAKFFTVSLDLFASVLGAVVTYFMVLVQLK
How it was run: (§1)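 Responses are VUAA1-normalized ΔF: each VOC-evoked calcium signal, (FMAX−F0)/F0 over 30 s after injection, divided by the same line's mean 50 µM VUAA1 response. Cells were doxycycline-induced HEK293 with GCaMP6 and the cognate Drosophila OR, in HEPES buffer pH 7.3; ligands tested 0.01–100 μM.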

Drosophila OR71a = biological target: T2, Drosophila OR71a (Drosophila melanogaster, UniProt Q9VUK5); experiment: Calcium ion fluorescence (GCaMP6) assay, OR71a stable HEK293 cell line; format: cell-based; conditions: for OR71a response (VUAA1-normalized) at 1 μM / OR71a response (VUAA1-normalized) at 10 μM / OR71a response (VUAA1-normalized) at 100 μM / Average response: OR71a cell line; for OR71a response (VUAA1-normalized) at 1 μM: VOC concentration 1 μM; for OR71a response (VUAA1-normalized) at 10 μM: VOC concentration 10 μM; for OR71a response (VUAA1-normalized) at 100 μM: VOC concentration 100 μM; for Average response: VUAA1-normalized response, mean of biological replicates; for activation at 1 µM / activation at 10 µM / activation at 100 µM: HEK293, read-out: OR71a response (VUAA1-normalized response)
T2 construct: expressed in transfected cells
T2 sequence (Q9VUK5 1-378): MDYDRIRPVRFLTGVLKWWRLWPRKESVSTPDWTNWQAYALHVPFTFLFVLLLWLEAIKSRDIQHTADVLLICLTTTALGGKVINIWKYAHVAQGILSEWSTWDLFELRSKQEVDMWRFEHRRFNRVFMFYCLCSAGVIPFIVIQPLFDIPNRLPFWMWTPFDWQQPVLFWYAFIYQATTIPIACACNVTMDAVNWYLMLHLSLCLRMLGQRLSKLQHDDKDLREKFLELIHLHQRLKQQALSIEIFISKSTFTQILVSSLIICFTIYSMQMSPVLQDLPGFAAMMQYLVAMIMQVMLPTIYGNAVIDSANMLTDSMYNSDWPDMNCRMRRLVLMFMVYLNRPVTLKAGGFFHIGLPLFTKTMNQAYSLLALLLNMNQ
T2 sequence (Q9VNB5 1-486 partner): T1 sequence (Q9VNB5 1-486 partner)
How it was run: as §1

[1] = OR49b cell line, VOC concentration 1 μM
[2] = OR49b cell line, VOC concentration 10 μM
[3] = OR49b cell line, VOC concentration 100 μM
[4] = OR49b cell line, odorant cc. 1 µM
[5] = OR49b cell line, odorant cc. 10 µM
[6] = OR49b cell line, odorant cc. 100 µM
[7] = ligand concentration 1 (unit not given), threshold 0.05, below shown as 0
[8] = ligand concentration 10 (unit not given), threshold 0.05, below shown as 0
[9] = ligand concentration 100 (unit not given), threshold 0.05, below shown as 0
[10] = ligand concentration 1 (unit not given), 0.05 threshold, values below shown as 0
[11] = ligand concentration 10 (unit not given), 0.05 threshold, values below shown as 0
[12] = ligand concentration 100 (unit not given), 0.05 threshold, values below shown as 0
[13] = VOC concentration 1 μM, read-out: OR49b response (VUAA1-normalized response)
[14] = VOC concentration 10 μM, read-out: OR49b response (VUAA1-normalized response)
[15] = VOC concentration 100 μM, read-out: OR49b response (VUAA1-normalized response)
[16] = concentration 1, normalized fluorescence change, values below 0.05 threshold given as 0
[17] = concentration 10, normalized fluorescence change, values below 0.05 threshold given as 0
[18] = concentration 100, normalized fluorescence change, values below 0.05 threshold given as 0

SMILES | OR49b response (VUAA1-normalized) at 1 μM (Drosophila OR49b; [1]) | OR49b response (VUAA1-normalized) at 10 μM (Drosophila OR49b; [2]) | Average response (Drosophila OR49b; [4]) | Average response (Drosophila OR49b; [5]) | Average response (Drosophila OR49b; [6]) | OR71a response (VUAA1-normalized) at 1 μM (Drosophila OR71a) | OR71a response (VUAA1-normalized) at 10 μM (Drosophila OR71a) | OR71a response (VUAA1-normalized) at 100 μM (Drosophila OR71a) | Average response (Drosophila OR71a; cc. 1 µM) | Average response (Drosophila OR71a; cc. 10 µM) | Average response (Drosophila OR71a; cc. 100 µM) | activation at 1 µM (Drosophila OR49b; [13]) [%] | activation at 10 µM (Drosophila OR49b; [14]) [%] | activation at 100 µM (Drosophila OR49b; [15]) [%] | activation at 1 µM (Drosophila OR71a) [%] | activation at 10 µM (Drosophila OR71a) [%] | activation at 100 µM (Drosophila OR71a) [%] | DF norm AVERAGE OR71a (Drosophila OR71a; [16]) | DF norm AVERAGE OR71a (Drosophila OR71a; [17]) | DF norm AVERAGE OR71a (Drosophila OR71a; [18]) | other results
CCCOC(C)=O [propyl acetate] | 0.00 | 0.00 | 0.00 | 0.00 | 0.014 | 0.00 | 0.00 | 0.00 | 0.0434 | 0.025 | 0.00 | – | – | – | – | – | – | – | – | – | OR49b response (VUAA1-normalized) at 100 μM (Drosophila OR49b; [3]): 0.00; DF norm AVERAGE OR49b (Drosophila OR49b; [7]): 0; DF norm AVERAGE OR49b (Drosophila OR49b; [8]): 0; DF norm AVERAGE OR49b (Drosophila OR49b; [9]): 0; DF norm AVERAGE OR71a (Drosophila OR71a; [7]): 0; DF norm AVERAGE OR71a (Drosophila OR71a; [8]): 0; DF norm AVERAGE OR71a (Drosophila OR71a; [9]): 0
CC1=CCC23CC1C(C)(C)C2CCC3C (stereo not drawn) [α-funebrene] | 0.00 | 0.00 | 0.00 | 0.00 | 0.00 | 0.00 | 0.00 | 0.00 | 0.00 | 0.00 | 0.00 | – | – | – | – | – | – | – | – | – | OR49b response (VUAA1-normalized) at 100 μM (Drosophila OR49b; [3]): 0.00; DF norm AVERAGE OR49b (Drosophila OR49b; [10]): 0; DF norm AVERAGE OR49b (Drosophila OR49b; [11]): 0; DF norm AVERAGE OR49b (Drosophila OR49b; [12]): 0; DF norm AVERAGE OR71a (Drosophila OR71a; [10]): 0; DF norm AVERAGE OR71a (Drosophila OR71a; [11]): 0; DF norm AVERAGE OR71a (Drosophila OR71a; [12]): 0
Cc1ccc(C)cc1 [p-xylene] | 0.00 | 0.00 | 0.00 | 0.033 | 0.38 | 0.00 | 0.06 | 0.00 | 0.00 | 0.06 | 0.00 | – | – | – | – | – | – | – | – | – | activation at 1 µM (Drosophila OR49b; 1 μM VOC, 50 μM VUAA1 = 1, read-out: OR49b Average response (VUAA1-normalized)): 0%; activation at 10 µM (Drosophila OR49b; 10 μM VOC, 50 μM VUAA1 = 1, read-out: OR49b Average response (VUAA1-normalized)): 3%; activation at 100 µM (Drosophila OR49b; 100 μM VOC, 50 μM VUAA1 = 1, read-out: OR49b Average response (VUAA1-normalized)): 38%; OR49b response (VUAA1-normalized) at 100 μM (Drosophila OR49b; [3]): 0.38; DF norm AVERAGE OR49b (Drosophila OR49b; [7]): 0; DF norm AVERAGE OR49b (Drosophila OR49b; [8]): 0; DF norm AVERAGE OR49b (Drosophila OR49b; [9]): 0.379; DF norm AVERAGE OR71a (Drosophila OR71a; [7]): 0; DF norm AVERAGE OR71a (Drosophila OR71a; [8]): 0.0615; DF norm AVERAGE OR71a (Drosophila OR71a; [9]): 0
CCCCCC(O)CC (stereo not shown) [3-octanol] | – | – | 0.00 | 0.07 | 0.055 | – | – | – | 0.0215 | 0.00 | 0.00 | 0 | 7 | 5.5 | 0 | 0 | 0 | 0 | 0 | 0 | –
CC1=CCC2CC1C2(C)C (stereo not drawn) [alpha-pinene] | – | – | 0.0281 | 0.00 | 0.00 | – | – | – | 0.0368 | 0.00 | 0.00 | 0 | 0 | 0 | 0 | 0 | 0 | – | – | – | DF norm AVERAGE OR49b (Drosophila OR49b; [7]): 0; DF norm AVERAGE OR49b (Drosophila OR49b; [8]): 0; DF norm AVERAGE OR49b (Drosophila OR49b; [9]): 0; DF norm AVERAGE OR71a (Drosophila OR71a; [7]): 0; DF norm AVERAGE OR71a (Drosophila OR71a; [8]): 0; DF norm AVERAGE OR71a (Drosophila OR71a; [9]): 0
C=Cc1ccccc1 [styrene] | – | – | – | – | – | 0.00 | 0.00 | 0.00 | 0.027 | 0.0458 | 0.00724 | – | – | – | – | – | – | – | – | – | EC50 (Drosophila OR49b; AVERAGE EC50, OR49b, printed with 95% confidence interval, matches the average LOG EC50): 21.1 µM; EC50 (Drosophila OR49b; EC50 (fitted parameter), OR49b, fit of each biological replicate): 16.6 µM and 17.3 µM; EC50 (Drosophila OR49b; EC50, AVERAGE, OR49b, arithmetic average of 5 replicate EC50): 24.9 µM; EC50 (Drosophila OR49b; LOG EC50 (fitted parameter), OR49b, fit of each biological replicate, log of EC50, unit inferred): 46.9 µM; EC50 (Drosophila OR49b; OR49b cell line, fitted Hill equation, Hill coefficient constrained to 1, maximal response max 1, read-out: EC50): 21.1 µM; EC50 (Drosophila OR49b; OR49b, average of 5 biological replicates, read-out: LOG EC50, AVERAGE (converted)): 21.1 µM; EC50 (Drosophila OR49b; OR49b, fit of each biological replicate, log of EC50, unit inferred, read-out: LOG EC50 (fitted parameter) (converted)): 34.6 µM and 16.6 µM and 17.3 µM and 8.95 µM; EC50 (Drosophila OR49b; OR49b, fit of each biological replicate, read-out: EC50 (fitted parameter)): 34.6 µM and 46.9 µM and 8.95 µM; EC50 (Drosophila OR49b; OR49b, fit of the averaged curve, read-out: EC50, FITTED AVERAGE CURVE): 24.4 µM; DF norm AVERAGE OR71a (Drosophila OR71a; [10]): 0; DF norm AVERAGE OR71a (Drosophila OR71a; [11]): 0; DF norm AVERAGE OR71a (Drosophila OR71a; [12]): 0
CCCCCC(=O)CC [3-octanone] | – | – | 0.0421 | 0.17 | 0.0439 | – | – | – | 0.00 | 0.00 | 0.00 | 0 | 17 | 0 | 0 | 0 | 0 | 0 | 0 | 0 | –
CCCC(O)CC (stereo not shown) [3-hexanol] | – | – | 0.23 | 0.20 | 0.08 | – | – | – | 0.00 | 0.06 | 0.0155 | 23 | 20 | 8 | 0 | 6 | 0 | 0 | 0.06016 | 0 | –
COc1cccc(OC)c1 [1,3-dimethoxy benzene] | – | – | 0.00 | 0.00 | 0.00 | – | – | – | 0.00 | 0.04 | 0.00 | 0 | 0 | 0 | 0 | 0 | 0 | 0 | 0 | 0 | DF norm AVERAGE OR49b (Drosophila OR49b): 0
